Assay results reported in BindingDB's records for doi:10.1124/mol.57.3.642 (National Institute On Drug Abuse, 2000).
Counter-ions that a name gives are not always drawn.

What was measured:
[1] = target: Nicotinic acetylcholine receptor (Rattus leucopus, UniProt Q62594)
[2] = target: Neuronal acetylcholine receptor subunit alpha-7 (Rattus norvegicus, UniProt Q05941)
[3] = target: Neuronal acetylcholine receptor subunit alpha-9 (Rattus norvegicus, UniProt P43144)
[4] = target: Neuronal acetylcholine receptor subunit alpha-4 (Rattus norvegicus, UniProt P09483)
[5] = target: Neuronal acetylcholine receptor subunit alpha-3 (Rattus norvegicus, UniProt P04757)
Neuronal acetylcholine receptor subunit alpha-3, sequence (P04757 whole entry): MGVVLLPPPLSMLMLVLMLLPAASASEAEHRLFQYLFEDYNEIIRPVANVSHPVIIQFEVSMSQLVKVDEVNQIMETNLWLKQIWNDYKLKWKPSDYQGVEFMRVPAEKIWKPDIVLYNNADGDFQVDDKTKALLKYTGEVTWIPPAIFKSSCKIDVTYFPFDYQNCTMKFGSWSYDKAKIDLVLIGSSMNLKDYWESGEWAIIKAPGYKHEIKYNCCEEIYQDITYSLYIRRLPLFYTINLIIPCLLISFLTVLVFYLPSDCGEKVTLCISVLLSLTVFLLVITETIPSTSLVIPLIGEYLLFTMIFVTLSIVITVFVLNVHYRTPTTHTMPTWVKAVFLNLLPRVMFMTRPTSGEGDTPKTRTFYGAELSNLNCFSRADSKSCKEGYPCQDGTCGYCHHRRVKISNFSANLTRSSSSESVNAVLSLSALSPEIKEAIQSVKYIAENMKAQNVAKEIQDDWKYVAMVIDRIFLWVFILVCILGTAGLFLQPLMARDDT

Neuronal acetylcholine receptor subunit alpha-9, sequence (P43144 whole entry): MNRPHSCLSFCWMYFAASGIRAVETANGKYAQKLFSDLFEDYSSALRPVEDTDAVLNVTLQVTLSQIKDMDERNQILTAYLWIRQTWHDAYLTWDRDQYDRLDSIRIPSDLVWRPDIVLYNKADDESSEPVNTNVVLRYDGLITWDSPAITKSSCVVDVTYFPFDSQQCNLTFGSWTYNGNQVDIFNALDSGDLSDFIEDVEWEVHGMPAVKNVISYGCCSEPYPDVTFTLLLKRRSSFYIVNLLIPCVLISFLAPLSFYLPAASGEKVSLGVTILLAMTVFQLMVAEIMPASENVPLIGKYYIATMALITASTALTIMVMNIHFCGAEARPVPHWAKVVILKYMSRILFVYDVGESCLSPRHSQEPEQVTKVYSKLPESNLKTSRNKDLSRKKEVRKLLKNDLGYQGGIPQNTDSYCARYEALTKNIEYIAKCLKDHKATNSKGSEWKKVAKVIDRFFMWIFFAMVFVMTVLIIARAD
Nicotinic acetylcholine receptor, sequence (Q62594 whole entry): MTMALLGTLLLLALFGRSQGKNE
Neuronal acetylcholine receptor subunit alpha-4, sequence (P09483 whole entry): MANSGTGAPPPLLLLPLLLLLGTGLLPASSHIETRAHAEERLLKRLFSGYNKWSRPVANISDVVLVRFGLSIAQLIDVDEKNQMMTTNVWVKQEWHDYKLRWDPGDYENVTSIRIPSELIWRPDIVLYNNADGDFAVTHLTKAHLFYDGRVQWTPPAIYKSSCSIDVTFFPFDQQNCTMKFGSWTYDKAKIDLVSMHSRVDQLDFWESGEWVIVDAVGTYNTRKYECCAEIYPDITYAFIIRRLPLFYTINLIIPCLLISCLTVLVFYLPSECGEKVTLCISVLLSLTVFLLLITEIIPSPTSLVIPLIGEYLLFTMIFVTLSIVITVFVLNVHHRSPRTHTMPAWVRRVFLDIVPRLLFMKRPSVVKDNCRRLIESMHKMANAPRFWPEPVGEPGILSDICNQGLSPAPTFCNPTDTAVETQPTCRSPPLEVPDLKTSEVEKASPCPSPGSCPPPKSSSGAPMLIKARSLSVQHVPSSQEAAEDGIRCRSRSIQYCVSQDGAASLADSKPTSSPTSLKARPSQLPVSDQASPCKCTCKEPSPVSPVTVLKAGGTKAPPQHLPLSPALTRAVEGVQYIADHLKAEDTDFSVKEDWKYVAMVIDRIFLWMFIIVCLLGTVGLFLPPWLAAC
Neuronal acetylcholine receptor subunit alpha-7, sequence (Q05941 whole entry): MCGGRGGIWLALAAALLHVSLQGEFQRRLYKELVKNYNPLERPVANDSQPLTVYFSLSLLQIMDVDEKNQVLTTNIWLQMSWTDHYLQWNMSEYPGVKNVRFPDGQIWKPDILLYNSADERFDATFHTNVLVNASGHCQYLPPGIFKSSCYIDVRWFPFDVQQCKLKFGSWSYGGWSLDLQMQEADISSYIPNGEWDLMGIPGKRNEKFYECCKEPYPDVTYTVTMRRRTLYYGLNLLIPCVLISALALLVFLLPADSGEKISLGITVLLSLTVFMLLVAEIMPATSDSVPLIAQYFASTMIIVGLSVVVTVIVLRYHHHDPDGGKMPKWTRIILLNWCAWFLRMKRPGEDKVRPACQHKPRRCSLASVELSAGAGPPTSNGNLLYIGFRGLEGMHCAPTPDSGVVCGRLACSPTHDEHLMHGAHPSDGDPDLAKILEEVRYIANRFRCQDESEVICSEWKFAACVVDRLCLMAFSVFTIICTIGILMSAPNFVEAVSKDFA

SMILES | Ki [1] | Ki [2] | Ki [3] | Ki [4] | Ki [5]
CNC(=O)Oc1ccc2c(c1)[C@]1(C)CCN(C)C1N2C (stereo partly drawn) | > 10000 nM |  |  |  | 
c1cncc(OC[C@@H]2CCN2)c1 |  | 17 nM | 320 nM | 0.01 nM | 
C=C(C=O)C[C@H]1C[C@H](O)[C@]2(C)O[C@@H]3C[C@@H]4O[C@@H]5C[C@]6(C)O[C@]7(C)CC[C@@H]8O[C@@H]9C[C@]%10(C)O[C@@H]%11C(C)=CC(=O)O[C@H]%11C[C@H]%10O[C@H]9C[C@@H](C)[C@H]8O[C@H]7C[C@H]6O[C@@]5(C)C/C=C\[C@H]4O[C@H]3C[C@H]2O1 | 2500 nM |  |  |  | 
O=C(CCCN1CCC(O)(c2ccc(Cl)cc2)CC1)c1ccc(F)cc1 [4-[4-(4-Chloro-phenyl)-4-hydroxy-piperidin-1-yl]-1-(4-fluoro-phenyl)-butan-1-one;propionate(HCl)] | > 10000 nM |  |  |  | 
O=c1cccc2n1C[C@H]1CNC[C@H]2C1 [(1S,9R)-7,11-diazatricyclo[7.3.1.0~2,7~]trideca-2,4-dien-6-one] |  | 260 nM | 190 nM | 0.18 nM | 54 nM
CN1CCc2cccc3c2[C@H]1Cc1ccc(O)c(O)c1-3 [APOKYN] | > 10000 nM |  |  |  | 
CN1[C@@H]2CC[C@H]1CC(OC(=O)[C@H](CO)c1ccccc1)C2 (stereo partly drawn) [CAS_51-55-8] | > 10000 nM |  |  |  | 
COc1cc2c3cc1Oc1cc(ccc1O)CC1c4c(cc(OC)c(O)c4Oc4ccc(cc4)CC3[N+](C)(C)CC2)CC[N+]1(C)C (stereo not drawn) [CAS_8063-06-7] | 730 nM |  |  |  | 
Ic1ccc(C2CC3CCC2N3)cn1 (stereo not drawn) [IPH] |  | 30 nM | 6.5 nM | 0.02 nM | 0.11 nM
C=CCN1CC[C@]23c4c5ccc(O)c4O[C@H]2C(=O)CC[C@@]3(O)[C@H]1C5 [[17-(2,3-3H-2-propenyl)]-4,5a-epoxy-3,14-dihydroxymorphinan-6-one] | > 10000 nM |  |  |  | 
